Data: US9969771B2, “Tetrapeptide having effect of inhibiting VEGF-induced angiogenesis and use thereof” (AVIXGEN INC., priority 2015, dated 2018)
Where a SMILES comes first, the peptide text is derived from it. Where no end group is shown, it is not given here. The star is where a group is joined. FITC = O=C1OC2(c3ccc(O)cc3Oc3cc(O)ccc32)c2ccc(NC(=S)*)cc21

Experiments:
HUVECs [1] = assay: VEGF-induced HUVEC proliferation, [3H]-thymidine incorporation assay; assay type: cell-based, human; conditions: for IC50: 3 h; for inhibition of VEGF-induced HUVEC proliferation: VEGF 10 ng/ml, [3H]-thymidine incorporation
Experimental: Human umbilical vein endothelial cells (HUVECs) were cultured in M199 medium, and during experiments, the cells were always used at passages 2 to 7. Meanwhile, mouse melanoma cells (B16F1 and B16F10) and human colorectal tumor cells (HCT116) were cultured in RPMI media supplemented with 10% FBS, 1 mM sodium pyruvate, 10 mM 4-(2-hydroxyethyl)-1-piperazineethanesulfonic acid and 100 U/ml penicillin-streptomycin, and human multiple myeloma cells (IM-9 and RPMI 8226) were cultured in RPMI-1640 media. All of the cells were cultured at 37° C. with 5% CO2 in a humidified incubator.
Angiogenic activity was determined by measuring cell proliferation, migration and tube formation. HUVEC proliferation was analyzed by a [3H]-thymidine incorporation assay. The HUVECs were seeded in a 24-well plate coated with gelatin at a density of 2×10^4 cells/well. […] […] […] 3H-labeled polymer DNA was evaluated with a liquid scintillation counter.

ERK = assay: Western blot, ERK phosphorylation in HUVECs; assay type: cell-based, human; conditions: VEGF / VEGF-A stimulated
Experimental: Cells were lyzed in RIPA buffer, and 50 μg of proteins were isolated by SDS-PAGE and then transferred to a PVDF membrane. The membrane was reacted with an antibody with respect to a target protein for 2 hours. The membrane was washed twice and reacted with a horseradish peroxidase-conjugated antibody, and then an amount of the target proteins was assessed with an enhanced chemiluminescence system.

zebrafish = assay: Zebrafish angiogenesis assay; assay type: in vivo; conditions: zebrafish embryo
Experimental: An adult zebrafish and an embryo were grown and maintained in a standard laboratory environment, and a zebrafish experiment was conducted according to the protocols approved by the animal ethics committee of Chungnam National University. To analyze angiogenesis, at 48 hours post fertilization (hpf), the embryo was anesthetized with tricaine (MS-222, 0.02%, embryo buffer), a peptide was administered, and FITC-dextran (2,000 kDa, Sigma) was further injected. A blood vessel image was obtained with a Leica DM5000B system at 72 hpf. As a probe for whole mount in situ hybridization, digoxigenin (DIG)-labeled RNA prepared by a cad5 (NM_001003983) gene was used. Meanwhile, a peptide was injected into the 18-hpf embryo collected at 25 hpf, fixed with 4% paraformaldehyde, washed with PBS (in 0.1% Tween20), and hybridized with DIG-labeled riboprobes (hybridization buffer). Subsequently, the resulting product was reacted with an alkaline phosphatase (AP)-conjugated anti-DIG antibody. Following reaction with an AP staining solution, a staining status was observed and visualized under a microscope (Leica, MZ-16).

HUVECs [2] = assay: FACS analysis of FITC-RLYE binding to HUVECs; design: species or system human
Experimental: HUVECs were cultured in a 60-mm culture plate for 24 hours. The cells were isolated from the plate with 5 mM EDTA-containing phosphate-buffered saline (PBS), washed with PBS three times, and suspended in 2% FBS/0.1% bovine serum albumin-containing PBS. Afterward, before or after the reaction with FITC-conjugated RLYE (SEQ ID NO: 2) (15 nM), the cells were treated with VEGF (100 ng/ml), stored on ice for 30 minutes, fixed in 2% paraformaldehyde, and assessed with a fluorescence activated cell sorter (FACS Calibur, Becton Dickinson) by flow cytometry.

Row | Compound | IC50 (HUVECs [1]) [nM] | inhibition of VEGF-induced HUVEC proliferation (HUVECs [1]) | inhibition of VEGF-induced ERK phosphorylation (ERK) | further results
1 | CC(C)C[C@H](NC(=O)[C@@H](N)CCCCN)C(=O)N[C@@H](Cc1ccc(O)cc1)C(=O)N[C@@H](CC(=O)O)C(=O)O [KLYD, reference compound] (H-KLYD-OH; N-terminus and C-terminus assumed) | 0.79 | significantly inhibited |  | 
2 | CC(C)C[C@H](NC(=O)[C@@H](N)CCCCN)C(=O)N[C@@H](Cc1ccc(O)cc1)C(=O)N[C@@H](CCC(=O)O)C(=O)O [KLYE] (H-KLYE-OH; N-terminus and C-terminus assumed) | 0.3 | effectively inhibited | more effectively inhibited | 
3 | CC(C)C[C@H](NC(=O)[C@@H](N)CCCNC(=N)N)C(=O)N[C@@H](Cc1ccc(O)cc1)C(=O)N[C@@H](CC(=O)O)C(=O)O [RLYD] (H-RLYD-OH; N-terminus and C-terminus assumed) | 0.14 | effectively inhibited | more effectively inhibited | 
4 | CC(C)[C@H](NC(=O)[C@@H](N)CCCNC(=N)N)C(=O)N[C@@H](Cc1ccc(O)cc1)C(=O)N[C@@H](CCC(=O)O)C(=O)O [RVYE] (H-RVYE-OH; N-terminus and C-terminus assumed) | 0.39 | effectively inhibited | more effectively inhibited | 
5 | EYLR: scrambled peptide against RLYE, used as a control [reference compound] |  | did not exhibit a significant inhibitory effect |  | formation of intersegmental vessels (ISV) (zebrafish): did not affect the ISV formation; formation of subintestinal vessels (SIV) (zebrafish): did not affect the SIV formation
6 | FITC-RLYE: FITC-conjugated RLYE (SEQ ID NO: 2) peptide used for FACS and confocal binding ({FITC}-RLYE) |  |  |  | binding to HUVEC surface (FACS) (HUVECs [2]; VEGF-A-pretreated cells): did not bind; binding to HUVEC surface (FACS) (HUVECs [2]; cells not treated with VEGF-A): bound to a cell surface
7 | KIYD: synthesized tetrapeptide based on KLYD |  | inhibitory effect similar to the positive control |  | 
8 | KLFD: synthesized tetrapeptide based on KLYD |  | inhibitory effect similar to the positive control |  | 
9 | KLWD: synthesized tetrapeptide based on KLYD |  | did not exhibit a significant inhibitory effect |  | 
10 | RLME: synthesized tetrapeptide based on KLYD |  | did not exhibit a significant inhibitory effect |  | 
